Article PMC9527238, “Glutamate and GABAA receptor crosstalk mediates homeostatic regulation of neuronal excitation in the mammalian brain” (Signal Transduction and Targeted Therapy, 2022)

What was measured:
αβ3E182Gγ GABAAR = molecular target: T1, αβ3E182Gγ GABAAR (Rattus norvegicus, UniProt P62813+P63079, E207G); assay: Patch clamp, HEK293, mutant GABAAR; type: cell-based; conditions: HEK293, read-out: Glutamate potentiation of GABA currents, % of control, normalized to respective wild-type receptor
T1 construct: expressed in transfected cells; host or cells: HEK293
Experimental: (§1) Fig. 4 Property characterization of glutamate binding sites in HEK cells expressing wild-type or mutated αβγ GABAARs. a, b The effects of electrostatic charge and/or size of the pocket-forming residues on glutamate-induced functional modulation.
(§2) HEK293 cells were cultured in DMEM (Invitrogen) supplemented with 10% fetal bovine serum. Cells were grown to 40–60% confluence and transiently transfected using Lipofectamine 2000 (Invitrogen) with 1:0.5–1 plasmid/lipid ratio. Cells were transfected with a pBK-CMV expression vector containing a rat recombinant GABAAR α, β or γ subunits. Co-transections were done with a plasmid ratio of 1:1 αβ and 2:2:1 for αβγ subunit combinations, respectively. pcDNA3.1-GFP was also co-transfected along with GABAAR subunits as a transfected marker in order to facilitate the visualization of the transfected cells during electrophysiological experiments. Cells were re-plated on glass coverslips after 15–20 h transfection and were cultured for an additional 15–24 h before whole-cell patch-clamp recordings.
(§3) The site-directed mutagenesis of α, β or γ subunits were performed by using the QuikChange method (Stratagene). […] Wild-type or mutant subunits were transfected in HEK293 cells and subjected to electrophysiology examinations.
(§4) Whole-cell patch-clamp recordings were performed under voltage-clamp mode using an Axopatch 200B or 1D patch-clamp amplifier (Molecular Devices) on HEK293 cells and cultured neurons. Whole-cell currents were recorded at a holding potential of −60 mV, and signals were filtered at 2 kHz, digitized at 10 kHz (Digidata 1322 A). Recording pipettes (3–5 MΩ) were filled with the intracellular solution that contained (mM): CsCl 140, HEPES 10, Mg-ATP 4, QX-314 5, pH 7.20; osmolarity, 290–295 mOsm. BAPTA (10 mM) was added in the intracellular solution. The coverslips were continuously superfused with the extracellular solution containing (mM): NaCl 140, KCl 5.4, HEPES 10, MgCl2 1.0, CaCl2 1.3, glucose 20, pH 7.4; osmolarity, 305–315 mOsm. […] Dose–response curves were created by fitting data to Hill equation: I = Imax/[1 + (EC50/[A])^n], where I is the current, Imax is the maximum current, [A] is a given concentration of agonist, n is the Hill coefficient. […] All experiments were performed at room temperature.

αβ1E182Gγ GABAAR = molecular target: T2, αβ1E182Gγ GABAAR (Rattus norvegicus, UniProt P15431+P62813, E207G); assay: Patch clamp, HEK293, mutant GABAAR; type: cell-based; conditions: HEK293, read-out: Glutamate potentiation of GABA currents, % of control, normalized to respective wild-type receptor
T2 construct: expressed in transfected cells; host or cells: HEK293
Experimental: as §1, §2, §3, §4

α2E137Gβγ GABAAR = molecular target: T3, α2E137Gβγ GABAAR (Rattus norvegicus, UniProt P23576+P63138, E165G); assay: Patch clamp, HEK293, mutant GABAAR; type: cell-based; conditions: HEK293, read-out: Glutamate potentiation of GABA currents, % of control, normalized to respective wild-type receptor
T3 construct: expressed in transfected cells; host or cells: HEK293
Experimental: as §1, §2, §3, §4

α2K104Dβγ GABAAR = molecular target: T4, α2K104Dβγ GABAAR (Rattus norvegicus, UniProt P23576+P63138, K132D); assay: Patch clamp, HEK293, mutant GABAAR; type: cell-based; conditions: HEK293, read-out: Glutamate potentiation of GABA currents, % of control, normalized to respective wild-type receptor
T4 construct: expressed in transfected cells; host or cells: HEK293
Experimental: as §1, §2, §3, §4

α2K155Dβγ GABAAR = molecular target: T5, α2K155Dβγ GABAAR (Rattus norvegicus, UniProt P23576+P63138, K183D); assay: Patch clamp, HEK293, mutant GABAAR; type: cell-based; conditions: HEK293, read-out: Glutamate potentiation of GABA currents, % of control, normalized to respective wild-type receptor
T5 construct: expressed in transfected cells; host or cells: HEK293
Experimental: as §1, §2, §3, §4

[1] = molecular target: T6, GABAAR-mediated currents, β2E181G KI mice (Mus musculus, UniProt P63137, E206G); assay: Whole-cell recording of CA1 neurons, hippocampal slices of homozygous β2E181G KI mice; type: cell-based; conditions: L-Glu 50 µM; KI slices
T6 construct: from tissue; host or cells: acute hippocampal slices of homozygous β2E181G knock-in mice (C57BL/6J), CA1 neurons
Experimental: We next determined if glutamate-mediated allosteric potentiation of GABAAR function was impaired in hippocampal slices acutely prepared from postnatal 90-day-old KI mice. Whole-cell recordings of CA1 neurons were performed under voltage clamp configuration at a holding potential of −60 mV.
Mice were deeply anesthetized with urethane (1.5 g/kg, i.p.) and transcardially perfused with ice cold sucrose hypertonic cutting solution (in mM: KCl 3.0, NaH2PO4.H2O 1.25, NaHCO3 26, Na-vitamin C 0.4, Na-lactate 2.0, Na-pyruvate 2.0, D-glucose 10.0, Sucrose 220, CaCl2 0.1, MgCl2 2, MgSO4 4.0, pH 7.4, 290–300 mOsm/l) prior to decapitation as described previously.[47] After decapitation, the brain was rapidly removed and transferred to the ice cold cutting solution bubbled with 95% O2 and 5% CO2, and acute coronal brain slices (400 μm) were prepared on a Leica vibratome (VT1200S, Germany). All brain slices were placed into a standard artificial cerebral spinal fluid (ACSF) (in mM: NaCl 124, KCl 2.8, NaH2PO4.H2O 1.25, NaHCO3 26, Na-vitamin C 0.4, Na-lactate 2.0, Na-pyruvate 2.0, D-glucose 10.0, CaCl2 2, MgSO4 1.2, pH 7.4, 290–300 mOsm/l) incubated at 35 °C for 2 h prior to recording. Field excitatory postsynaptic potential (fEPSP) recordings were performed under current-clamp mode using HEKA EPC10 patch-clamp amplifier (HEKA Electronic, Lambrecht/Pfalz, Germany). […]

α1β2 GABAARs = molecular target: T7, α1β2 GABAARs (Rattus norvegicus, UniProt P62813+P63138); assay: [3H]glutamate binding assay, plasma membranes of HEK293 cells overexpressing α1 and β2; conditions: 40 nM [3H]glutamate + 0.4 mM non-radiolabeled competitor
T7 construct: expressed in transfected cells; host or cells: HEK293
Experimental: For membrane preparation, transfected or non-transfected HEK293 cells were washed twice with cold PBS and harvested by scraping into 5 ml cold PBS. Cells were then centrifuged at 1200 × g for 12 min at 4 °C and medium was removed. The washing procedure was repeated twice. Then the cell pellet was re-suspended into 1 ml of 50 mM Tris-HCl buffer (pH 7.4, with protease inhibitor) and homogenized using syringes with 18-G, 21-G and 23-G needles.
To separate the membrane, the homogenate were centrifuged for 20 min at 20,000 × g at 4 °C. Then the pellet was re-suspended into 1 ml of 50 mM Tris-HCl buffer, pH 7.4 and centrifuged again. After repeating this procedure for one more time, the pellet was re-suspended into 1 ml of 50 mM Tris-HCl buffer, pH 7.4 and the protein concentration was measured.
To conduct the binding assay, 100 µg membrane enriched preparation was incubated with 40 nM [3H]-Glutamate in a total volume of 0.5 ml in 50 mM Tris-HCl buffer, pH 7.4 for 1 h on ice. […] Then the reaction was terminated by quickly filtering the solution on Whatman filter paper and washing by 3.5 ml Tris-HCl buffer. Radioactivity was measured in a Beckman liquid scintillation counter.

Molecule `N[C@@H](CCC(=O)O)C(=O)O` [glutamate, Glutamate] has an activity at 100 µM (αβ3E182Gγ GABAAR; Glu 100 μM) of 2.3 ± 5%, an activity at 1000 µM (αβ3E182Gγ GABAAR; Glu 1 mM) of 2.4 ± 7.9% and an activity at 100 µM (αβ1E182Gγ GABAAR; Glu 100 μM) of 2.4 ± 2%. For the same molecule, the activity at 1000 µM (αβ1E182Gγ GABAAR; Glu 1 mM) was 7.6 ± 1%, the activity at 100 µM (α2E137Gβγ GABAAR; Glu 100 μM) was 0.3 ± 3.4% and the activity at 1000 µM (α2E137Gβγ GABAAR; Glu 1 mM) was 5.7 ± 6.2%. The activity at 100 µM (α2K104Dβγ GABAAR; Glu 100 μM) was 2.7 ± 3.1%, the activity at 1000 µM (α2K104Dβγ GABAAR; Glu 1 mM) was 15.1 ± 4.4% and the activity at 100 µM (α2K155Dβγ GABAAR; Glu 100 μM) was 6.3 ± 6.9%. For the same molecule, the activity at 1000 µM (α2K155Dβγ GABAAR; Glu 1 mM) was 5.3 ± 2.1%, the “eIPSCs relative to baseline” value [1] was 114.2 ± 9.9% and the “[3H]glutamate binding activity in presence of competitor” value (α1β2 GABAARs) was 262.2 ± 47.8 CPM.
